The source of these data is patent publication US11999727B2 (Tango Therapeutics, Inc., priority 2020, dated 2024).

The structures appear in SMILES notation.

Experiment [1] deals with T1, PRMT5 (Homo sapiens, UniProt O14744).
T1 construct: purchased Viva (custom protein)
Nature of the experiment: PRMT5 biochemical IC50 assay with no cofactor. Particulars: PRMT5, no cofactor; read-out: No Cofactor/rel IC50. From the text: Table 1 indicates IC50 values (μM) against PRMT5 for exemplary compounds in the presence of SAM as cofactor, with no cofactor, and with MTA as cofactor, respectively (columns 4-6). […] Ki values can be calculated from the IC50 values as described in the Examples section. As detailed in the Examples section, for the assay performed in the presence of SAM, IC50=Ki×1.5 (Ki=IC50/1.5).

Experiment [2] concerns HAP1 MTAP-deleted cell line. Kind of experiment: SDMA in-cell western assay, HAP1 MTAP-deleted. It counts as cell-based. Particulars: for IC50: Homo sapiens, HAP1, SDMA in-cell western, HAP1 MTAP-deleted, read-out: HAP 1 MTAP deleted IC50; for MTAP intact/deleted ratio: IC50 ratio HAP1 MTAP-intact / HAP1 MTAP-deleted, SDMA in-cell western. The essentials: (§1)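 Compounds were tested in HAP1 cells differing only in MTAP status (endogenous expression versus null). Cellular SDMA levels were then measured by in-cell western, giving an IC50 in each background.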

The test system of experiment [3] is HAP1 MTAP-intact cell line. Kind of experiment: SDMA in-cell western assay, HAP1 MTAP-intact. It counts as cell-based. Particulars: Homo sapiens, HAP1, SDMA in-cell western, HAP1 MTAP-intact; read-out: MTAP HAP1 intact IC50. The essentials: as §1
Experiment [4] deals with T1, PRMT5. Kind of experiment: PRMT5 biochemical IC50 assay with MTA as cofactor. Particulars: PRMT5, MTA as cofactor; read-out: MTA IC50.
In experiment [5] the target is T1, PRMT5. Nature of the experiment: PRMT5 biochemical IC50 assay with SAM as cofactor. Particulars: PRMT5, SAM as cofactor; read-out: SAM IC50.
Experiment [6] has as its system HAP1 MTAP-deleted cell line. Kind of experiment: Viability assay, MTAP-deleted cell line. Particulars: Homo sapiens, HAP1, viability assay, MTAP-deleted cell line; read-out: HAP1 MTAP deleted viability. Format: cell-based. From the text:
Table 1 additionally indicates IC50 values in a viability assay for the MTAP-deleted cell line (column 10), indicating the effect of treatment with compound on cell survival.

T1 sequence (O14744 whole entry): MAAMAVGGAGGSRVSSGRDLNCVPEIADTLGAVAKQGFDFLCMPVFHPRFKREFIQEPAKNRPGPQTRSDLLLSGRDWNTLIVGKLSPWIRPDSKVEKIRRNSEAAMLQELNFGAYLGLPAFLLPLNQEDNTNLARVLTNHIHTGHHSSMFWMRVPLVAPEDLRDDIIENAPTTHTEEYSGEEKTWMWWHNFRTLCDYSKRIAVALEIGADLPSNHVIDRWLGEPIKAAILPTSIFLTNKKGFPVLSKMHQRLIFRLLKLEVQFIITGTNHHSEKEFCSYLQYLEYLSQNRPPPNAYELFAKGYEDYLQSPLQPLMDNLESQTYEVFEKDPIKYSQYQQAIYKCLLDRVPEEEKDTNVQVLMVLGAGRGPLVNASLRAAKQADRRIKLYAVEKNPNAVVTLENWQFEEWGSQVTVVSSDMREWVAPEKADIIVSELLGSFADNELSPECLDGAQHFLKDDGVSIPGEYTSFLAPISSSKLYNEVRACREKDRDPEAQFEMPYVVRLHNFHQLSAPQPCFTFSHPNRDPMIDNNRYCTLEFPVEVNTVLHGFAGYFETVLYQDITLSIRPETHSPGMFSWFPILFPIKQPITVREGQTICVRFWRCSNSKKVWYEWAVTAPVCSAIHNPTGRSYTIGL
T1 sequence (Q9BQA1 whole entry partner): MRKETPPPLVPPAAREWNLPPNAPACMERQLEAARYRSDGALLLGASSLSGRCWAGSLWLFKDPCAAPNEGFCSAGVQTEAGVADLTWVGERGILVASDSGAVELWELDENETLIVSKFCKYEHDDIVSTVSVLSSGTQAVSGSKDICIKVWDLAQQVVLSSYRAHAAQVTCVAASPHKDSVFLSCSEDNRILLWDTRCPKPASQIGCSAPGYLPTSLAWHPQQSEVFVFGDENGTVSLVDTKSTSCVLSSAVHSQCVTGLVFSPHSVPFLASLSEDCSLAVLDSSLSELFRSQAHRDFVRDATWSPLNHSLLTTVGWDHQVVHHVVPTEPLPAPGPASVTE

Consider `CCc1cc(NC(=O)C(=O)N2C[C@H](C)CC[C@H]2c2ccc(NS(C)(=O)=O)nc2)cnc1N` (single isomer, unassigned) [Compound 995], for which the IC50 was 50 to 500 nM on PRMT5 [1]; 100 to 1000 nM in experiment [2]; more than 1000 nM in experiment [3]; 50 to 500 nM on PRMT5 [4]; 50 to 500 nM on PRMT5 [5]; more than 10000 nM in experiment [6]. Also, in experiment [2], the MTAP intact/deleted ratio entry was “A (an IC50 ratio greater than or equal to 10 fold)”.

For `Cc1cc(NC(=O)C(=O)N2C[C@@H](C)CC[C@@H]2c2ccc3sc(N)nc3c2)cnc1N` (single isomer, unassigned) [Compound 997], the IC50 on PRMT5 [1] is less than 50 nM; in experiment [2], less than 100 nM; in experiment [3], less than 100 nM; at PRMT5 [4], less than 50 nM; on PRMT5 [5], 50 to 500 nM; in experiment [6], less than 1000 nM. For the same compound, the MTAP intact/deleted ratio result in experiment [2] was “B (an IC50 ratio greater than or equal to 3 fold but lower than 10 fold)”.

`Cc1cc(NC(=O)C(=O)N2C[C@@H](C)CC[C@@H]2c2ccc(NS(C)(=O)=O)nc2)cnc1N` (single isomer, unassigned) [Compound 998]: the IC50 on PRMT5 [1] is more than 500 nM; in experiment [2], more than 1000 nM; in experiment [3], more than 1000 nM; on PRMT5 [4], more than 500 nM; on PRMT5 [5] it was more than 500 nM; in experiment [6], more than 10000 nM. In experiment [2], the MTAP intact/deleted ratio entry is “C (an IC50 ratio of less than 3 fold)”.

For `C[C@@H]1CC[C@@H](c2ccc(NS(C)(=O)=O)nc2)N(C(=O)C(=O)Nc2cncc(C(N)=O)c2)C1` (single isomer, unassigned) [Compound 1003], the IC50 is 50 to 500 nM on PRMT5 [1]; more than 1000 nM in experiment [2]; more than 1000 nM in experiment [3]; less than 50 nM at PRMT5 [4]; 50 to 500 nM on PRMT5 [5]; more than 10000 nM in experiment [6]. Moreover, the MTAP intact/deleted ratio result in experiment [2] is on record as “C (an IC50 ratio of less than 3 fold)”.

Regarding `COc1ncc(NC(=O)C(=O)N2C[C@@H](C)CC[C@@H]2c2cc3[nH]ncc3s2)cc1C(N)=O` (single isomer, unassigned) [Compound 1006, 2-methoxy-5-(2-(5-methyl-2-(1H-thieno[3,2-c]pyrazol-5-yl)piperidin-1-yl)-2-oxoacetamido)nicotinamide], the IC50 was 50 to 500 nM on PRMT5 [1]; less than 100 nM in experiment [2]; more than 1000 nM in experiment [3]; less than 50 nM on PRMT5 [4]; 50 to 500 nM on PRMT5 [5]; less than 1000 nM in experiment [6]. For the same compound, in experiment [2], the MTAP intact/deleted ratio entry is listed as “A (an IC50 ratio greater than or equal to 10 fold)”.

As for `C[C@@H]1CC[C@@H](c2cc[nH]n2)N(C(=O)C(=O)Nc2cncc(C(N)=O)c2)C1` (single isomer, unassigned) [Compound 1007], the IC50 was more than 500 nM on PRMT5 [1]; more than 1000 nM in experiment [2]; more than 1000 nM in experiment [3]; more than 500 nM on PRMT5 [4]; more than 500 nM on PRMT5 [5]; more than 10000 nM in experiment [6]. The MTAP intact/deleted ratio result in experiment [2] was “B (an IC50 ratio greater than or equal to 3 fold but lower than 10 fold)”.

On to `Cc1cc(NC(=O)C(=O)N2C[C@H](C)CC[C@H]2c2ccc(C(F)F)nc2)cnc1N` (single isomer, unassigned) [Compound 1011], for which the IC50 at PRMT5 [1] is more than 500 nM; in experiment [2], more than 1000 nM; in experiment [3] it was more than 1000 nM; on PRMT5 [4], more than 500 nM; at PRMT5 [5], more than 500 nM; in experiment [6], more than 10000 nM. Also, the MTAP intact/deleted ratio result in experiment [2] is given as “C (an IC50 ratio of less than 3 fold)”.

As to `Cc1cc(NC(=O)C(=O)N2C[C@@H](C)CC[C@@H]2c2ccc(C(F)(F)F)nc2)cnc1N` (single isomer, unassigned) [Compound 1012], the IC50 was 50 to 500 nM on PRMT5 [1]; 100 to 1000 nM in experiment [2]; 100 to 1000 nM in experiment [3]; less than 50 nM at PRMT5 [4]; 50 to 500 nM on PRMT5 [5]; 1000 to 10000 nM in experiment [6]. In experiment [2], the MTAP intact/deleted ratio entry was “C (an IC50 ratio of less than 3 fold)”.

In the case of `CCc1ccc([C@@H]2CC[C@@H](C)CN2C(=O)C(=O)Nc2cnc(N)c(C)c2)cn1` (single isomer, unassigned) [Compound 1013], the IC50 was 50 to 500 nM on PRMT5 [1]; less than 100 nM in experiment [2]; 100 to 1000 nM in experiment [3]; less than 50 nM on PRMT5 [4]; 50 to 500 nM on PRMT5 [5]; 1000 to 10000 nM in experiment [6]. The MTAP intact/deleted ratio result in experiment [2] is “B (an IC50 ratio greater than or equal to 3 fold but lower than 10 fold)”.

For the compound `Cc1cc(NC(=O)C(=O)N2C[C@H](C)CC[C@H]2c2ccc(N3CCN(C)CC3)nc2)cnc1N` (single isomer, unassigned) [Compound 1014], the IC50 is less than 50 nM on PRMT5 [1]; less than 100 nM in experiment [2]; less than 100 nM in experiment [3]; less than 50 nM on PRMT5 [4]; 50 to 500 nM on PRMT5 [5]; less than 1000 nM in experiment [6]. The MTAP intact/deleted ratio entry in experiment [2] is reported as “B (an IC50 ratio greater than or equal to 3 fold but lower than 10 fold)”.

Consider `Cc1cc(NC(=O)C(=O)N2C[C@H](C)CC[C@H]2c2ccc(C(F)(F)F)nc2)cnc1N` (single isomer, unassigned) [Compound 1015], for which the IC50 is more than 500 nM at PRMT5 [1]; more than 1000 nM in experiment [2]; more than 1000 nM in experiment [3]; more than 500 nM at PRMT5 [4]; more than 500 nM on PRMT5 [5]; more than 10000 nM in experiment [6]. In addition, in experiment [2], the MTAP intact/deleted ratio result is listed as “C (an IC50 ratio of less than 3 fold)”.

In the case of `CCc1ccc([C@H]2CC[C@H](C)CN2C(=O)C(=O)Nc2cnc(N)c(C)c2)cn1` (single isomer, unassigned) [Compound 1016], the IC50 was more than 500 nM on PRMT5 [1]; more than 1000 nM in experiment [2]; more than 1000 nM in experiment [3]; more than 500 nM on PRMT5 [4]; more than 500 nM at PRMT5 [5]; more than 10000 nM in experiment [6]. Further, the MTAP intact/deleted ratio entry in experiment [2] is recorded as “C (an IC50 ratio of less than 3 fold)”.

On to `Cc1cc(NC(=O)C(=O)N2C[C@@H](C)CC[C@@H]2c2ccc(N3CCN(C)CC3)nc2)cnc1N` (single isomer, unassigned) [Compound 1017], for which the IC50 was more than 500 nM at PRMT5 [1]; more than 1000 nM in experiment [2]; more than 1000 nM in experiment [3]; more than 500 nM on PRMT5 [4]; more than 500 nM at PRMT5 [5]; less than 1000 nM in experiment [6]. In addition, the MTAP intact/deleted ratio result in experiment [2] is “C (an IC50 ratio of less than 3 fold)”.

On to `Cc1cc(NC(=O)C(=O)N2C[C@@H](C)CC[C@@H]2c2ccc(C(F)F)nc2)cnc1N` (single isomer, unassigned) [Compound 1018], for which the IC50 on PRMT5 [1] is 50 to 500 nM; in experiment [2] it was 100 to 1000 nM; in experiment [3], 100 to 1000 nM; on PRMT5 [4] it was less than 50 nM; at PRMT5 [5], 50 to 500 nM; in experiment [6] it was 1000 to 10000 nM. In addition, the MTAP intact/deleted ratio entry in experiment [2] was “B (an IC50 ratio greater than or equal to 3 fold but lower than 10 fold)”.

With `Cc1cc(NC(=O)C(=O)N2C[C@@H](C)CC[C@@H]2c2cscn2)cnc1N` (single isomer, unassigned) [Compound 1020], the IC50 on PRMT5 [1] was 50 to 500 nM; in experiment [2], 100 to 1000 nM; in experiment [3], more than 1000 nM; at PRMT5 [4] it was less than 50 nM; on PRMT5 [5], more than 500 nM; in experiment [6], 1000 to 10000 nM. Also, the MTAP intact/deleted ratio entry in experiment [2] is recorded as “A (an IC50 ratio greater than or equal to 10 fold)”.

For `C[C@H]1CC[C@H](c2ccc3sc(C(F)(F)F)nc3c2)N(C(=O)C(=O)Nc2cncc(C(N)=O)c2)C1` (single isomer, unassigned) [Compound 1023], the IC50 at PRMT5 [1] is less than 50 nM; in experiment [2], less than 100 nM; in experiment [3] it was 100 to 1000 nM; on PRMT5 [4], less than 50 nM; on PRMT5 [5], 50 to 500 nM; in experiment [6], less than 1000 nM. For the same compound, in experiment [2], the MTAP intact/deleted ratio entry is on record as “A (an IC50 ratio greater than or equal to 10 fold)”.

`COc1ncc(NC(=O)C(=O)N2C[C@@H](C)CC[C@@H]2c2ccc3sc(C(F)(F)F)nc3c2)cc1C(N)=O` (single isomer, unassigned) [Compound 1024]: the IC50 on PRMT5 [1] is less than 50 nM; in experiment [2] it was less than 100 nM; in experiment [3] it was 100 to 1000 nM; at PRMT5 [4] it was less than 50 nM; at PRMT5 [5] it was 50 to 500 nM; in experiment [6], less than 1000 nM. In addition, the MTAP intact/deleted ratio entry in experiment [2] is given as “A (an IC50 ratio greater than or equal to 10 fold)”.

For `Cc1cc(NC(=O)C(=O)N2C[C@H](C)CC[C@H]2c2cscn2)cnc1N` (single isomer, unassigned) [Compound 1028], the IC50 on PRMT5 [1] is more than 500 nM; in experiment [2] it was more than 1000 nM; in experiment [3], more than 1000 nM; on PRMT5 [4] it was more than 500 nM; on PRMT5 [5], more than 500 nM; in experiment [6], more than 10000 nM. Besides, the MTAP intact/deleted ratio result in experiment [2] was “C (an IC50 ratio of less than 3 fold)”.
